# Marks after values point to notes of the source that are not given here.
# Legend:
# [1] = test system: myocytes isolated from wt and cTnI-G203S mice; experiment: Mitochondrial membrane potential (JC-1) in myocytes isolated from treated mice; type: in vivo, mouse
# Procedure: (§5) Male mice expressing the human cTnI gene encoding the human disease-causing mutation cTnI-G203S were used for all studies. […] Male mice expressing the normal human cTnI gene were used as controls (wt). Ten-week-old mice were used for in vitro studies. For in vivo studies, 20- or 30-wk-old cTnI-G203S mice were treated with 10 μM AID-TAT or AID[S]-TAT via intraperitoneal injection, 3×/wk/5 wk. In vivo dose of AID-TAT or AID[S]-TAT (10 μM) was calculated based on blood volume, equating to ∼2 mg/kg total BW. Male animal models were used to eliminate potential differences in responses due to sex. Experiments were performed in a total of 21 wt (AID[S]-TAT), 6 wt (AID-TAT), 15 cTnI-G203S (AID[S]-TAT), and 26 cTnI-G203S (AID-TAT) mice. All animals were randomly assigned to treatment groups.
# Fluorescence was measured on a Hamamatsu Orca ER digital camera attached to an inverted Nikon TE2000-U microscope. Fluorescent indicator 5,5′,6,6′-tetrachloro-1,1′,3,3′-tetraethylbenzimidazolylcarbocyanine iodide was used to measure Ψm in cardiac myocytes, as previously described (JC-1, Molecular Probes) ([61]). Autofluorescence was used to measure flavoprotein oxidation in cardiac myocytes based on previously described methods ([13], [29], [62]). Responses to drugs were reported as a percentage increase from the basal average.
# Cells were incubated in calcium-free HBS (supplemented with 3 mM EGTA and 200 nM JC-1) for at least 3 h prior to measuring changes in m. Sodium cyanide (NaCN, 40 mM, mitochondrial electron transport blocker) was added at the end of each experiment to collapse m, confirming that the JC-1 signal was indicative of m.
# Additionally, individual 580 nm and 535 nm wavelength signals were assessed in each experiment to determine whether the fluorescent indicator was accurately measuring m. Autofluorescence was used to measure flavoprotein oxidation in cardiac myocytes based on previously described methods (ex = 480 nm, em = 535 nm, interval = 1 min, exposure = 1.5 seconds) (4, 6, 7). Carbonyl cyanide-4-(trifluoromethoxy)phenylhydrazone (FCCP, 50 μM, mitochondrial electron transport chain uncoupler) was added at the end of each experiment to increase flavoprotein oxidation confirming signal was mitochondrial in origin. Ratiometric JC-1 or flavoprotein fluorescent signals were quantified by manually tracing myocytes and subtracting an equivalent background region
# Responses to drugs were reported as a percentage increase from the basal average. […]
# [2] = test system: myocytes isolated from wt and cTnI-G203S mice; experiment: MTT assay (formation of formazan) in myocytes isolated from treated mice; type: in vivo, mouse; conditions: for effect on metabolic activity (MTT): myocytes from wt or cTnI-G203S mice treated with AID(S)-TAT or AID-TAT, oligomycin 20 µM; for effect on BayK(−)-induced increase in metabolic activity (MTT): applied to myocytes from treated mice, nisoldipine 15 μM, Ru360 15 µM, dantrolene 20 µM
# Procedure: The rate of reduction of MTT (Sigma-Aldrich) to formazan by the mitochondrial electron transport chain was measured in intact mouse cardiac myocytes, as previously described ([22], [25]). Each n represents number of replicates for each treatment group from cardiac myocytes isolated from a total of six wt [AID(S)-TAT], four cTnI-G203S [AID(S)-TAT], and three (AID-TAT) mice. Detailed methods are provided in SI Appendix. […]
# The rate of reduction of 3-(4,5-Dimethyl-2-thiazolyl)-2,5-diphenyl-2H-tetrazolium bromide (MTT, Sigma-Aldrich, St. Louis, Missouri) to formazan by the mitochondrial electron transport chain was measured in intact mouse cardiac myocytes as previously described (1, 9). This reaction is dependent upon the presence of reduced nicotinamide adenine dinucleotide (NADH) and reduced nicotinamide adenine dinucleotide phosphate (NADPH), and intact mitochondrial electron transport (10). Cardiac myocytes were treated with relevant drugs in 96 well plates. MTT was added to each well to a final concentration of 0.5 mg/ml and the rate of the increase in absorbance immediately measured using a spectrophotometer at 37°C (PowerWave XS, 570 nm, reference wavelength of 620 nm). The rate of the increase in absorbance in response to treatments was expressed as a percentage of the rate of the increase prior to the addition of treatments. Each n represents number of replicates for each treatment group from cardiac myocytes isolated from a total of 6 wt (AID[S]- TAT), 4 cTnI-G203S (AID[S]-TAT), and 3 (AID-TAT) mice.
# Immunoblot of ICa-L protein
# [3] = test system: mice expressing β-MHC mutations; conditions: precardiomyopathic mice expressing β-MHC mutations, compared to untreated mutants; cited from earlier work
# Description: Patients with HCM often present with early hypercontractility that stems from a high-degree of actin–myosin cross-linking ([36]). […] Recent studies have investigated the efficacy of a cardiac-specific small-molecule, Mavacamten (MYK-461), that inhibits β-MHC/actin binding and subsequently reduces sarcomere force output and contractility ([39], [40]), as a potential HCM therapeutic. Treatment of precardiomyopathic mice expressing β-MHC mutations with M ...
# [4] = test system: myocytes isolated from wt and cTnI-G203S mice; experiment: Flavoprotein oxidation in myocytes isolated from treated mice; type: in vivo, mouse; conditions: applied to myocytes from treated wt or cTnI-G203S mice; nisoldipine 15 μM
# Procedure: as §5
# Fluorescence was measured on a Hamamatsu Orca ER digital camera attached to an inverted Nikon TE2000-U microscope. […]
# Additionally, individual 580 nm and 535 nm wavelength signals were assessed in each experiment to determine whether the fluorescent indicator was accurately measuring m. […] Ratiometric JC-1 or flavoprotein fluorescent signals were quantified by manually tracing myocytes and subtracting an equivalent background region […]
# wt mice = experiment: Echocardiography of treated wt mice; type: in vivo, mouse; conditions: 25-wk-old wt mice, 10 μM i.p. 3×/wk/5 wk from 20 wk; mean, n = 4
# Procedure: (§1) Male mice expressing the human cTnI gene encoding the human disease-causing mutation cTnI-G203S were used for all studies. The mice develop hallmark features of HCM by 21 wk ([7], [13]). Male mice expressing the normal human cTnI gene were used as controls (wt). Ten-week-old mice were used for in vitro studies. For in vivo studies, 20- or 30-wk-old cTnI-G203S mice were treated with 10 μM AID-TAT or AID[S]-TAT via intraperitoneal injection, 3×/wk/5 wk. In vivo dose of AID-TAT or AID[S]-TAT (10 μM) was calculated based on blood volume, equating to ∼2 mg/kg total BW. Male animal models were used to eliminate potential differences in responses due to sex. Experiments were performed in a total of 21 wt (AID[S]-TAT), 6 wt (AID-TAT), 15 cTnI-G203S (AID[S]-TAT), and 26 cTnI-G203S (AID-TAT) mice. All animals were randomly assigned to treatment groups. All animal studies were approved by the Animal Ethics Committee of The University of Western Australia in accordance with the 2013 Australian Code for the Care and Use of Animals for Scientific Purposes ([58]).
# (§2) Echocardiographic measurement of left ventricular function were performed on mice under light methoxyflurane anesthesia using an i13L probe on a Vivid 7 Dimension ultrasound system (GE Healthcare), as previously described ([13], [29], [30]). Each n represents the average of quantitative measurements from wt or cTnI-G203S mice for each treatment group. Detailed methods are provided in SI Appendix.
# (§3) Echocardiographic measurement of left ventricular function were performed on mice under light methoxyflurane anesthesia using an i13L probe on a Vivid 7 Dimension ultrasound system (GE Healthcare, Little Chalfont, United Kingdom) as previously described (4, 7). Echocardiographic measurements were taken on M-mode in triplicate from separate mice at a sweep speed of 200 mm/s. Each n represents the average of quantitative measurements from wt or cTnI-G203S mice for each treatment group. Measurements of left ventricular end diastolic diameter (LVEDD), left ventricular end systolic diameter (LVESD), fractional shortening (FS), left ventricular posterior wall in diastole (LVDPW), left ventricular posterior wall in systole (LVSPW), interventricular septum in diastole (IVSD), interventricular septum in systole (IVSS) and end diastolic diameter (EDD) were made. FS was calculated by the formula [(LVEDD-LVESD)/EDD] x 100. […]
# (§4) (BioAssay Systems, Hayward CA). All assays were performed as per manufacturer’s instructions, using a spectrophotometer (PowerWave XS).
# cTnI-G203S mice = experiment: Echocardiography of treated cTnI-G203S mice; type: in vivo, mouse; conditions: Pre-HCM treatment (from 20 wk), 25-wk-old cTnI-G203S mice, 10 μM i.p. 3×/wk/5 wk; mean, n = 7 AID(S)-TAT, n = 6 AID-TAT
# Procedure: as §1, §2, §3, §4
# [5] = test system: myocytes isolated from wt and cTnI-G203S mice; experiment: Confocal imaging of F-actin (phalloidin) in myocytes from treated mice; type: in vivo, mouse; conditions: myocytes from cTnI-G203S mice treated 10 μM 3×/wk/5 wk, Pre HCM Rx
# Procedure: Following completion of treatment regimens, myocytes were isolated and prepared for confocal imaging based on previously described methods ([29]). Detailed methods are provided in SI Appendix.
# Echocardiographic measurement of left ventricular function were performed on mice under light methoxyflurane anesthesia using an i13L probe on a Vivid 7 Dimension ultrasound system (GE Healthcare, Little Chalfont, United Kingdom) as previously described (4, 7). Echocardiographic measurements were taken on M-mode in triplicate from separate mice at a sweep speed of 200 mm/s. Each n represents the average of quantitative measurements from wt or cTnI-G203S mice for each treatment group. […] FS was calculated by the formula [(LVEDD-LVESD)/EDD] x 100.
# Cell size was determined as previously described (16). […]
# To measure kidney toxicity, urea and creatinine concentration was assessed using QuantiChrom Urea and Creatinine assay kits respectively (BioAssay Systems, Hayward CA). To measure liver toxicity, alanine transaminase (ALT) and aspartate transaminase (AST) concentration was measured using Alanine Transaminase and Aspartate Transaminase assay kits respectively (BioAssay Systems, Hayward CA). […]
molecule,measurement,setting,value
"COC(=O)C1=C(C)NC(C)=C([N+](=O)[O-])C1c1ccccc1C(F)(F)F (stereo not drawn) [BayK(+), reference compound]",effect on Ψm,[1]; myocytes from wt or cTnI-G203S mice treated with AID(S)-TAT or AID-TAT,did not significantly alter Ψm
same,effect on metabolic activity (MTT),[2],did not significantly alter metabolic activity
"CC(C)n1c(=O)cc(N[C@@H](C)c2ccccc2)[nH]c1=O [MYK-461, Mavacamten]","left ventricular wall thickness, FS, fibrosis and myocyte organization",[3],"reduce left ventricular wall thickness, FS, and fibrosis, and improve myocyte organization"
CC[C@H]1/C=C/C=C/C[C@@H](C)[C@H](O)[C@@](C)(O)C(=O)[C@@H](C)[C@H](O)[C@@H](C)C(=O)[C@@H](C)[C@H](O)[C@@H](C)/C=C/C(=O)O[C@@H]2[C@H](C)[C@H](CC1)O[C@]1(CC[C@H](C)[C@H](C[C@@H](C)O)O1)[C@H]2C [Oligomycin],effect on metabolic activity (MTT),[2],significant decrease in metabolic activity
O=C1CN(/N=C/c2ccc(-c3ccc([N+](=O)[O-])cc3)o2)C(O)=N1 [dantrolene],effect on BayK(−)-induced increase in metabolic activity (MTT),[2],but not with ryanodine receptor blocker dantrolene
"COC(=O)C1=C(C)NC(C)=C(C(=O)OCC(C)C)C1c1ccccc1[N+](=O)[O-] (centres unmarked) [nisoldipine, reference compound]",effect on BayK(−)-induced increase in Ψm,"[1]; applied to myocytes from treated wt or cTnI-G203S mice, nisoldipine 15 μM",attenuated
same,effect on BayK(−)-induced increase in metabolic activity (MTT),[2],attenuated
same,effect on BayK(−)-induced increase in flavoprotein oxidation,[4],attenuated
"QKILGEWDLAQYTDQELE [AID(S)-TAT, reference compound]",FS,wt mice,35.08%
same,HW:BW,wt mice,4.33 mg/g
same,IVSD,wt mice,0.76 mm
same,IVSS,wt mice,0.86 mm
same,LVDPW,wt mice,1.26 mm
same,LVEDD,wt mice,3.56 mm
same,LVESD,wt mice,2.31 mm
same,LVSPW,wt mice,1.42 mm
same,FS,cTnI-G203S mice,47.39 ^* %
same,HW:BW,cTnI-G203S mice,5.14 ^* mg/g
same,IVSD,cTnI-G203S mice,0.85 ^* mm
same,IVSS,cTnI-G203S mice,0.96 ^* mm
same,LVDPW,cTnI-G203S mice,1.31 mm
same,LVEDD,cTnI-G203S mice,3.08 ^* mm
same,LVESD,cTnI-G203S mice,1.62 ^* mm
same,LVSPW,cTnI-G203S mice,1.43 mm
same,F-actin organization,[5],F-actin disorganization
Ru360,effect on BayK(−)-induced increase in metabolic activity (MTT),[2],attenuated
